Test results published in patent US20030130636A1, “System for improving skin health of absorbent article wearers” (priority 2001, published 2003).
“And” between values parts separate entries of the source, which are not always exact repeats. Equal values may be shown once.

Columns and labels:
EPIDERM skin culture [1] = test: MTT assay, viability of EPIDERM skin culture; format: cell-based, human; details: 0.4% (w/v) in PBS + protease insult, relative to control+control
Description: The MTT dye is taken up by the cells. The reduction of the dye as a result of cellular metabolism can be used to measure the cytotoxicity of the test compositions. In order to confirm viability, inserts of the EPIDERM skin culture that have already been subjected to the test compositions and biological insults are removed from their media and are washed consecutively through immersion in three different beakers of PBS. Fresh PBS is used for each test composition or control being evaluated. The PBS is discarded onto paper towel. The EPIDERM skin culture inserts are then patted onto paper towel and placed into the wells of a 24 well plate containing 300 microliters of pre-warmed media. After all of the EPIDERM skin culture inserts are washed, they are transferred to new 24 well plates containing 300 microliters of the MTT reagent. […] The plates are incubated for 2-3 hours in a 37° C., 5% CO2 incubator. After incubation, the EPIDERM skin culture inserts are transferred to 24 well plates and are immersed in 2 milliliters of MTT extraction buffer. The extraction buffer extracts the MTT reagent from the cells. […] The optical density (OD) of the samples is measured at 570 nm using a spectrophotometer. […] This reading is subtracted from a background reading at 650 nm to improve data quality.

EPIDERM skin culture [2] = test: EPIDERM skin culture study: IL-1α response to fecal protease (trypsin-chymotrypsin) insult; format: cell-based, human; details: six hours, one value per set of experiments
Method: In order to evaluate the efficacy of the skin care solutions of the invention, a human skin culture was selected to model the response of the human epidermis. EPIDERM skin culture is a cornified, air-interfaced human skin culture. EPIDERM skin culture has multiple layers of progressively differentiated keratinocytes resembling human epidermis. EPIDERM EPI-200 skin culture can be purchased from MatTek Corporation of Ashland, MA. Experiments using EPIDERM skin culture are conducted in six well plates. Each well contains one milliliter of pre-warmed media that is the same as the EPIDERM skin culture media. The plates are then incubated in a 37° C., 5% CO2 incubator for thirty minutes. […]
After application of the insult solution, the well plates are incubated for six hours in the 37° C., 5% CO2 incubator. […] The response of the EPIDERM skin culture to the test compositions/control and the insult solution is determined by measuring the amount of interleukin-1 alpha (hereinafter “IL-1α”). Interleukin-1 alpha can be quantified using an Interleukin-1 alpha Quantikine Kit available from R&D Systems of Minneapolis, Minnesota. Interleukin-1 alpha measurements are converted to Loges for each of the treatments and the averages for each treatment are calculated. […]
(Test composition+insult) result=the measured amount of IL-1α from treatment with a test composition+protease insult. […]

Compound	Viability (percentage) (EPIDERM skin culture [1])	Mean Reduction of Interleukin-1 Alpha (percentage) (EPIDERM skin culture [2]; 1% in PBS)	Mean Reduction of Interleukin-1 Alpha (percentage) (EPIDERM skin culture [2]; 10% in PBS)
O=C(O[C@@H]1Cc2c(O)cc(O)cc2O[C@@H]1c1cc(O)c(O)c(O)c1)c1cc(O)c(O)c(O)c1 [Epigallocatechin gallate]	103% and 101% and 112%	–	–
[Cl-].[Cl-].[Sr+2] [Strontium Chloride]	–	0% (10)	15% (10)
